The source of these data is ChEMBL document CHEMBL1201862, “PubChem BioAssay data set” (2004).

Assay [1] has as its target T1, Short transient receptor potential channel 4 (Mus musculus, UniProt Q9QUQ5).
T1 sequence (Q9QUQ5 whole entry): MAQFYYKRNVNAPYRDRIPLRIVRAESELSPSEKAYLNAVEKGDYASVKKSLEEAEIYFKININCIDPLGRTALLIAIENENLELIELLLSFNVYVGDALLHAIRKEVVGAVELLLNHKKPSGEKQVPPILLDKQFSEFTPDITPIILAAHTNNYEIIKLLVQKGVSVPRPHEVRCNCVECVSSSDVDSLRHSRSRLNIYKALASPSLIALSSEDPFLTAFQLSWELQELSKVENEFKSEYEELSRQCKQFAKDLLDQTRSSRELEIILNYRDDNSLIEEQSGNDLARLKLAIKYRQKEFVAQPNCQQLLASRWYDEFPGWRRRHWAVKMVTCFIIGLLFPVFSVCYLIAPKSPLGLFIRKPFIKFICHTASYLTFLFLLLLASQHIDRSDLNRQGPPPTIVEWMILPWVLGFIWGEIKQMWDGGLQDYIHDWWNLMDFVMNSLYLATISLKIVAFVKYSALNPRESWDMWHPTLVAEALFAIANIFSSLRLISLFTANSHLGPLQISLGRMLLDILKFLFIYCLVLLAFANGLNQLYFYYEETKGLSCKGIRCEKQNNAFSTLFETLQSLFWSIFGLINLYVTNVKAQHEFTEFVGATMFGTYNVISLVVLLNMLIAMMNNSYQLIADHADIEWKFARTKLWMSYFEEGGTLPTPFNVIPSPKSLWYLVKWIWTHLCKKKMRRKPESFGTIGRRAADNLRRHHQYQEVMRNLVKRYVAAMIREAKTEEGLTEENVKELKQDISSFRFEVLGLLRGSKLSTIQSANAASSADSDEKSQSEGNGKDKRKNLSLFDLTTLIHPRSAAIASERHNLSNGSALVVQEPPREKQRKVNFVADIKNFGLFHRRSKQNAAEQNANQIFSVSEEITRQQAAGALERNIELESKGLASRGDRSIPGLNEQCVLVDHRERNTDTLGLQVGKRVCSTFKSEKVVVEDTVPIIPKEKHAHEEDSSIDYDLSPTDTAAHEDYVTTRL
As to the kind of experiment: calcium entry via TRPC4 opening agents – cell-based, HEK293 TRPC4/mu-opioid, Fluo-4 calcium, dose response (AID 434937). Type of assay: functional.

Assay [2] addresses Delta-type opioid receptor (Homo sapiens, UniProt P41143). As to the kind of experiment: Counterscreen for agonists of heterodimerization of the mu 1 (OPRM1) and delta 1 (OPRD1) opioid receptors: Luminescence-based cell-based high throughput dose response assay to identify agonists of OPRD1 homodimerization. [Related pubchem assays (depositor defined):AID504326, AID504355, AID504692, AID504904, AID504905]. Type of assay: functional.

In assay [3] the target is Mu-type opioid receptor (Homo sapiens, UniProt P35372). Briefly: Counterscreen for agonists of heterodimerization of the mu 1 (OPRM1) and delta 1 (OPRD1) opioid receptors: Luminescence-based cell-based high throughput dose response assay to identify agonists of OPRM1 homodimerization. Type of assay: functional.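 Also: U2OS cells expressing OPRM1 and beta-arrestin as split beta-galactosidase partners.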
Chain of Mu-type opioid receptor (P35372 whole entry): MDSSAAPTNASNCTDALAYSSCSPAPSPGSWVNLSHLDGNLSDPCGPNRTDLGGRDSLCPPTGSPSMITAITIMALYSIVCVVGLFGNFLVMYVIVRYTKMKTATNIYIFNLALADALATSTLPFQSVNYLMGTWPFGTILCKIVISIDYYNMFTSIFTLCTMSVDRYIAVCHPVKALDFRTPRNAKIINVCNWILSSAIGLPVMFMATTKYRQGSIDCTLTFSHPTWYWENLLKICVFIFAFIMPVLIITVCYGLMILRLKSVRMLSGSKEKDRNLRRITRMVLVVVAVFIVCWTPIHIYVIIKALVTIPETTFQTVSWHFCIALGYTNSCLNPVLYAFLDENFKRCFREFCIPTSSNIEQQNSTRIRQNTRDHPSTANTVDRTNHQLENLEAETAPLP
The target of assay [4] is 5-hydroxytryptamine receptor 5A (Homo sapiens, UniProt P47898). As to the kind of experiment: Counterscreen for agonists of OPRM1-OPRD1 heterodimerization: luminescence-based cell-based high throughput dose response assay to identify agonists of 5-hydroxytryptamine (serotonin) 5A receptor (HTR5A). [Related pubchem assays (depositor defined):AID504326, AID504355, AID504692, AID504904, AID504905]. Type of assay: functional.
Chain of 5-hydroxytryptamine receptor 5A (P47898 whole entry): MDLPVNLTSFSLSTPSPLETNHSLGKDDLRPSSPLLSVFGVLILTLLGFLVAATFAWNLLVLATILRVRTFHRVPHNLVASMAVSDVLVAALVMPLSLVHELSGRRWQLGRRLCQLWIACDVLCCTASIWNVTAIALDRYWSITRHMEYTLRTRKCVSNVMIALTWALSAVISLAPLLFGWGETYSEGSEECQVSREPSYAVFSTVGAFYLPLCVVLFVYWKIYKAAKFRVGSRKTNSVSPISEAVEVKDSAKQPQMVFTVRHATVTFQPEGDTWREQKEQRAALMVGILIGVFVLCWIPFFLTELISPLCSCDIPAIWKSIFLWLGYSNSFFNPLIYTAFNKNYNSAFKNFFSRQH

Assay [5] deals with HEK293. Briefly: inhibition of NOD1-driven NF-kB reporter – cell-based, luminescence, uHTS, primary screen (AID 1578). Type of assay: functional. To be noted: Homo sapiens.
Assay [6] has as its system HEK293. As to the kind of experiment: cells. The assay is classed as functional, cell-based. To be noted: Homo sapiens.
Assay [7] concerns HEK293. As to the kind of experiment: cells. The assay is classed as functional, cell-based. To be noted: Homo sapiens. This is another data set of the same source.
The subject of assay [8] is HEK293. As to the kind of experiment: NOD2 signaling inhibitors in MDP-stimulated cells, cell-based, uHTS, luminescence (AID 2001). The assay is classed as functional. The conditions noted are these: Homo sapiens.
Assay [9] concerns the target Nonstructural protein 1 (Influenza A virus, UniProt Q194T2). Type of assay: functional, Influenza A virus (A/California/07/2009(H1N1)).
Assay [10] addresses Trypsin (Sus scrofa, UniProt P00761). As to the kind of experiment: trypsin protease activity blockade – biochemical, quenched peptide fluorescence, cherry-pick, selectivity assay for Rce1 protease inhibitor project, dose response (AID 488789).
For assay [11], the target named is T2, CAAX prenyl protease 2 (Saccharomyces cerevisiae S288c, UniProt Q03530).
T2 sequence (Q03530 whole entry): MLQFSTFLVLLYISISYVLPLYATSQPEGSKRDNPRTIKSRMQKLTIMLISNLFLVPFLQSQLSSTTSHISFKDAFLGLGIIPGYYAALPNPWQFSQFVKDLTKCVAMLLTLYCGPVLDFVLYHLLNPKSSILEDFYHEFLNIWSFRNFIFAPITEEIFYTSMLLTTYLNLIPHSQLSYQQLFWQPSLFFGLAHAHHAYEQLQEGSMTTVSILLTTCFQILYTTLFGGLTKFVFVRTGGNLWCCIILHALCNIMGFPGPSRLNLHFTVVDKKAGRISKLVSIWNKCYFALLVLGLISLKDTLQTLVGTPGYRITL
The assay is classed as biochemical.

For assay [12], the target named is CAAX prenyl protease 1 (Saccharomyces cerevisiae S288c, UniProt P47154). Briefly: yeast CAAX protease Ste24 inhibition – biochemical, S. cerevisiae, plate reader, cherry-pick, dose response (AID 488815).
Chain of CAAX prenyl protease 1 (P47154 whole entry): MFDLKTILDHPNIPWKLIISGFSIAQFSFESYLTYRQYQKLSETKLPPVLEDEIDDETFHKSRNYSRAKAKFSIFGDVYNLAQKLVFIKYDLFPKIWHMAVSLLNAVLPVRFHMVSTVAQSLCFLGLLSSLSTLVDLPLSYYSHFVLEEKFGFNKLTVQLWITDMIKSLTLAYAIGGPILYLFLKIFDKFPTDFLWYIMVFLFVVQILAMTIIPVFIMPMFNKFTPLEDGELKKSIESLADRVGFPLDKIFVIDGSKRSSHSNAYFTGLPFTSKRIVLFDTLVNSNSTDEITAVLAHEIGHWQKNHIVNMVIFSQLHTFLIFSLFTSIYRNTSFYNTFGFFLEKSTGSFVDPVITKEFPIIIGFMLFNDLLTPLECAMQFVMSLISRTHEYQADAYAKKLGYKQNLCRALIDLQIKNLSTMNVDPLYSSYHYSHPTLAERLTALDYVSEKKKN
Assay [13] concerns the target CAAX prenyl protease 2 (Homo sapiens, UniProt Q9Y256). As to the kind of experiment: inhibition of Ras-converting CAAX protease Rce1 – biochemical, yeast membranes, quenched-peptide fluorescence, cherry-pick, dose response (AID 588849).

Active and inactive are the calls of the source.

Chain of Delta-type opioid receptor (P41143 whole entry): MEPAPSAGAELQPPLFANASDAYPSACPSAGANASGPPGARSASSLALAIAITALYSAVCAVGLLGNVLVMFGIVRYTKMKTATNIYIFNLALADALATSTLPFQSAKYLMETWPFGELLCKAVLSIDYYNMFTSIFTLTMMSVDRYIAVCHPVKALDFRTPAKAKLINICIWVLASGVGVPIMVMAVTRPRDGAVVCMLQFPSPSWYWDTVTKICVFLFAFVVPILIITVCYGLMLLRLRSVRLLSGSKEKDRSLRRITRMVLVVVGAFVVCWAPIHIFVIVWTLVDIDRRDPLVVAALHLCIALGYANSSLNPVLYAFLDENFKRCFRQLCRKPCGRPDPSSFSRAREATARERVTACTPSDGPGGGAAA
Chain of Trypsin (P00761 whole entry): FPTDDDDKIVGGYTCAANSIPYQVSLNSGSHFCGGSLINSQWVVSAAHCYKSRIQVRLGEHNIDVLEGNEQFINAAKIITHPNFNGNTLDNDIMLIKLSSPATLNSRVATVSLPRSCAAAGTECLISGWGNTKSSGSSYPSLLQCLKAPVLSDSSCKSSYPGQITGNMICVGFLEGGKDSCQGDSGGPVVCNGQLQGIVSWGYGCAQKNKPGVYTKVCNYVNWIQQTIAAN
Chain of CAAX prenyl protease 2 (Homo sapiens, UniProt Q9Y256) (Q9Y256 whole entry): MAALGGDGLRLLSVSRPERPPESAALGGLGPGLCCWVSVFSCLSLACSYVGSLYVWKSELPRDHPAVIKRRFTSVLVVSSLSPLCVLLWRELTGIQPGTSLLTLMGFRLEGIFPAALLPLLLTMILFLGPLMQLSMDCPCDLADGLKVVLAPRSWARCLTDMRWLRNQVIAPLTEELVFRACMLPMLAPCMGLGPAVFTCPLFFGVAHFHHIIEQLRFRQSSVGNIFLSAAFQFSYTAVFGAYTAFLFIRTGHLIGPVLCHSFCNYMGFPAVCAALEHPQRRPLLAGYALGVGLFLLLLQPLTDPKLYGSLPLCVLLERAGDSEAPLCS
Chain of Nonstructural protein 1 (Q194T2 whole entry): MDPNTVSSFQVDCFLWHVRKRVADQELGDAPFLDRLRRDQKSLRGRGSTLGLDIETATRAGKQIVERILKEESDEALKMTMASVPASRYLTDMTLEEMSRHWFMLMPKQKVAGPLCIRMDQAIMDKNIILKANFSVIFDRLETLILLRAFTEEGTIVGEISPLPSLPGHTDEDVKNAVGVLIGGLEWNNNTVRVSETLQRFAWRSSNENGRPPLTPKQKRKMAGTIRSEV

Take `Cc1cccc(NC(S)=NCC(c2cccnc2)N(C)C)c1C` (stereo unspecified): the EC50 in [1] is 0.0067 µM (active); in [2] it was 17.8 µM (inactive); in assay [3], 2.75 µM (active); in assay [4], > 92.5 µM (inactive).

As to `CN1C=C/C(=C/c2ccc3ccccc3[n+]2C)c2ccccc21`, the half-maximal effective concentration (EC50) in assay [5] was 5.15 µM (active). Also, the IC50 in assay [6] is 8.56 µM (active); in [7] it was 18 µM (active); in assay [8], 7.8 µM (active); in assay [9], 16.4 µM (active).

As for `COC(=O)C(Cc1cccc(C)n1)(c1ccccc1)c1ccccc1`, the EC50 in assay [2], in assay [3] and in assay [4] was > 92.5 µM (inactive) each time.

Regarding `COC(=O)c1sc2cnccc2c1N`, the AC50 in assay [10] was 9.63 µM (active); in [11], 14 µM (active); in assay [12], 4.39 µM (active); in assay [13] it was 2.57 µM (active).
